Test results taken from patent US5620676A, “Biologically active ATP analogs” (priority 1995, dated 1997).
Entries after “also recorded” stand apart in the source; their conditions may differ. Like-named read-outs stand apart in the source and are kept apart here.

Assays:
[1] = target: T1, P2Y receptor (taenia coli) (Cavia porcellus, UniProt P59902); assay: Relaxation of carbachol-contracted guinea pig taenia coli
T1 construct: Relaxant responses mediated via P2Y receptors were examined in guinea pig taenia coli; from tissue; host or cells: guinea pig taenia coli (carbachol-contracted)
From the text: (§1) Muscular relaxation/contraction: Relaxant responses mediated via P2Y receptors were examined in guinea pig taenia coli, rabbit aorta, and rabbit mesenteric artery, as described by Hoyle et al. (Br. J. Pharmacol., 107, 367-374 (1992a)), Burnstock et al., (Br. J. Pharmacol., 90, 383-391 (1987a)), and Rubino et al., (Eur. J. Pharmacol., 212, 237-240 (1992)). Contractile responses mediated via P2X receptors were examined in the guinea pig urinary bladder and vas deferens, and rabbit saphenous artery, also using standard methods (see Hoyle et al., supra., 1992; Hoyle et al., Br. J. Pharmacol., 99, 617-621 (1990); and Burnstock et al., Br. J. Pharmacol., 90, 111-120 (1987b)).
Muscular relaxation assays were performed as recited in Example 3. […] All curves are the mean of two determinations except for 5'-ATP (n=38), 2-hexylthio-ATP (n=4), 2-(5-hexenyl)thio-ATP (n=3), and 2-(2-4-nitrophenylethyl)thio-AMP (n=5). […] The pD2 value for 2-methylthio-ATP is 8.0±0.15, as reported by Hoyle et al., in Receptor Data for Biological Experiments, (H. N. Doods and J. C. A. Van Meel, eds., 1992b) at pp. 54-61.
(§2) Phospholipase C activity and muscle relaxation/contraction effects were assessed using the methods recited in Example 3. In FIGS. 10-12, which present the result of assays of phospholipase C activity in turkey erythrocyte membranes, the x-axis is marked in units of the log of the molar concentration of the putative P2Y receptor agonist tested and the y-axis is marked in units of the percentage of maximum production of [^3 H]-inositol phosphate generated. In FIG. 13, the x-axis is marked in units of the negative log of the molar concentration of applied putative P2Y receptor agonists and the y-axis is marked in units of the percentage relaxation of the 50 nM carbachol-induced contraction of guinea pig taenia coli. In FIG. 14, the x-axis is also marked in units of the negative log of the molar concentration of applied putative P2Y receptor agonists and the y-axis is marked in units of the percentage relaxation of the 1 μM noradrenalin-induced contraction of rabbit aorta endothelium. In FIGS. 15-16, the x-axis is marked in units of the negative log of the molar concentration of applied putative p^2X receptor agonists and the y-axis is marked in units of the percentage contraction relative to a standard dose of KCl (i.e., 60 mM), as assessed in guinea pig isolated urinary bladder detrussor muscle (FIG. 15) and guinea pig isolated vas deferens (FIG. 16).

[2] = target: T2, P2X receptor (vas deferens) (Cavia porcellus, UniProt A0A286XVA9); assay: Contraction of guinea pig isolated vas deferens
T2 sequence (A0A286XVA9 1-399): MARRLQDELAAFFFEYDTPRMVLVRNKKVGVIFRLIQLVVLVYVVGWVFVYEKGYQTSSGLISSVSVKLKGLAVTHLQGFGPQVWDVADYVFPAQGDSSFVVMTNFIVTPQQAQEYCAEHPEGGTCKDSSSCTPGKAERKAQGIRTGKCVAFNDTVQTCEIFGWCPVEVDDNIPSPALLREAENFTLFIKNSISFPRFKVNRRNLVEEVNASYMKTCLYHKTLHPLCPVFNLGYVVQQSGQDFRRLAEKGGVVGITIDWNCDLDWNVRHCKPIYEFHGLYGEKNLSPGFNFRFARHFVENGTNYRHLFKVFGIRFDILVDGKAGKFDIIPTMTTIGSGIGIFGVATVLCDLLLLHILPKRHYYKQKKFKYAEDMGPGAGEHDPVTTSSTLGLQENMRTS

[3] = target: T3, P2X receptor (urinary bladder) (Cavia porcellus, UniProt A0A286XVA9); assay: Contraction of guinea pig isolated urinary bladder detrussor muscle; conditions: guinea pig urinary bladder
T3 construct: guinea pig isolated urinary bladder detrussor muscle; from tissue; host or cells: guinea pig isolated urinary bladder detrusor muscle

[4] = target: T4, P2Y receptor (turkey erythrocyte membranes) (Meleagris gallopavo, UniProt P49652); assay: Stimulation of phospholipase C (inositol phosphate formation) in turkey erythrocyte membranes; assay type: biochemical; conditions: for activity/potency in words, turkey erythrocyte / EC50: turkey erythrocyte membranes
T4 construct: from tissue; host or cells: washed turkey erythrocytes, ghosts prepared by hypotonic lysis
Procedure: Phospholipase C activity: Stimulation of inositol phosphate formation by compounds of the present invention was measured in turkey erythrocyte membranes as described by Harden et al., supra and Boyer et al., supra. The K0.5 values were averaged from 3-8 independently determined dose-response curves for each compound. Briefly, one ml of washed turkey erythrocytes was incubated in inositol-free medium (DMEM; Gibco) with 0.5-1 mCi of 2-[^3 H]myoinositol (20 Ci/mmol; American Radiolabeled Chemicals Inc., St. Louis, Mo.)for 18-24 h in a humidified atmosphere of 95% air 5% CO2 at 37° C. Erythrocyte ghosts were prepared by rapid lysis in hypotonic buffer (5 mM sodium phosphate, pH 7.4, 5 mM MgCl2, 1 mM EGTA) as described by Boyer et al., supra. Phospholipase C activity was measured in 25 μl of [^3 H]inositol-labeled ghosts (≈175 μg of protein, 200-500,000 cpm/assay) in a medium containing 424 μM CaC12, 0.91 mM MgSO4, 2 mM EGTA, 115 mM KCl, 5 mM KH2 PO4, and 10 mM Hepes, pH 7.0. Assay (100 μl or 200 μl final volume) contained 1 μM GTPγS and the indicated concentrations of nucleotide analogs. Ghosts were incubated at 30° C. for 5 min, and total [^3 H]inositol phosphates were quantitated after purification by anion exchange chromatography according to Harden et al. (supra) and Boyer et al. (supra).
as §2

[5] = target: P2Y receptor (mesenteric artery); assay: Relaxation of rabbit mesenteric artery; conditions: for relaxation pD2, mes. artery: log molar units
[6] = target: T5, P2X receptor (saphenous artery) (Oryctolagus cuniculus, UniProt G1U3D6); assay: Contraction of rabbit saphenous artery; conditions: for activation at 10 µM: read-out: response at 10 μM relative to the contraction produced by 1 μM α,MeATP, saph. artery
T5 construct: and rabbit saphenous artery; from tissue; host or cells: rabbit saphenous artery
T5 sequence (G1U3D6 1-399): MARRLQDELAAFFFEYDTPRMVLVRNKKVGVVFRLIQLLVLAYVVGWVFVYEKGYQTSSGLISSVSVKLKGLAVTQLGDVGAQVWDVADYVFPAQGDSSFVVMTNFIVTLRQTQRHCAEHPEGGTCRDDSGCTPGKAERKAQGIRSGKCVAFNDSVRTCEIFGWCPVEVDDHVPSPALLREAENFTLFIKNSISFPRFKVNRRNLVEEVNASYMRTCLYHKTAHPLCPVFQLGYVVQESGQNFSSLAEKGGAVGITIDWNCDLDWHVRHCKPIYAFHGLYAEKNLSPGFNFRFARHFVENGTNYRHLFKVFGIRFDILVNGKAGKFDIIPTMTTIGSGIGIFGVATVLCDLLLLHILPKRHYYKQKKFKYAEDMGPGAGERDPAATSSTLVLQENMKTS
From the text: as §1
^c For the saphenous artery, the percentages in brackets are response
at 10 μM relative to the contraction produced by 1 μM α,MeATP
ATP in this assay is very weak (EC50 =
1.78 mM). The highest concentrations of the analogues tested were 3-30

[7] = test system: P2Y receptor (aorta endothelium); assay: Relaxation of noradrenalin-contracted rabbit aorta; conditions: for activity/potency/selectivity in words, aorta: rabbit aorta endothelial P2Y receptor; for relaxation pD2, aorta: rabbit aorta, log molar units
[8] = guinea pig taenia coli, log molar units, read-out: relaxation pD2, taenia coli (converted)
[9] = mean ± S.E.M. for at least 2 determinations, read-out: phosphatidyl inositol metabolism (K0.5, nM) erythrocyte

T4 sequence (P49652 whole entry): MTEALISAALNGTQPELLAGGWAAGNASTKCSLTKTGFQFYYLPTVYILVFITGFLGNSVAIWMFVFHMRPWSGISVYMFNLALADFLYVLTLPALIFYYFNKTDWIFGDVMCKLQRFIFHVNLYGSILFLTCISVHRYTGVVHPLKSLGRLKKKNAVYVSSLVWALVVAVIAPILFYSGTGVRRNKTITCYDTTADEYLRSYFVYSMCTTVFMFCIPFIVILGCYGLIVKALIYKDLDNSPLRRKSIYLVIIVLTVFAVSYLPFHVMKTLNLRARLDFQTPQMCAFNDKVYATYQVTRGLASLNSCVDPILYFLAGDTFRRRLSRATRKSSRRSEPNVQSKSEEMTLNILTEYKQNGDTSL
T1 sequence (P59902 whole entry): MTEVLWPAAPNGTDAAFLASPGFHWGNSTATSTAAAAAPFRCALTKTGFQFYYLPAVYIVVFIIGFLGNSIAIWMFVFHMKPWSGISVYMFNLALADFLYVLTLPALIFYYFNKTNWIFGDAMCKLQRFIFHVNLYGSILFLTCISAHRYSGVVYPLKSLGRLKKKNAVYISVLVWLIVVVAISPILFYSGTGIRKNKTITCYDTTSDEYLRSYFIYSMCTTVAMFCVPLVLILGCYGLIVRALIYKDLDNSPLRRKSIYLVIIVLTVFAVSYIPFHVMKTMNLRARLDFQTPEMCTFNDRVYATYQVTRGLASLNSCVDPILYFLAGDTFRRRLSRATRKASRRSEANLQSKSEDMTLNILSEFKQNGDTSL

## Nc1ncnc2c1ncn2[C@H]1CC[C@@H](COP(=O)(O)OP(=O)(O)OP(=O)(O)O)O1 [2',3'-Dideoxy-ATP, 2',3'-dideoxy-ATP, reference compound]
[1]; guinea pig taenia coli
  activity/potency in words, taenia coli: as potent as ATP at taenia coli P2Y receptors
[1]; [8]
  EC50: 10 µM
[2]
  activity/potency in words, vas deferens: ≈ATP
[3]
  activity/potency in words, bladder: >ATP
[4]
  activity/potency in words, turkey erythrocyte: weakly active at turkey erythrocyte P2Y receptors
[4]; [9]
  EC50: 70800 nM

## N#CCCCCCCSc1nc(N)c2ncn([C@@H]3O[C@H](COP(=O)(O)O)[C@@H](O)[C@H]3O)c2n1 [2-(6-Cyanohexyl)thio-AMP, 2-(6-cyanohexylthio)-AMP]
[1]
  EC50: 39.8 µM
[5]
  relaxation pD2, mes. artery: 6.2
[4]; [9]
  EC50: 37000 nM
[4]; read-out: K0.5
  EC50: 37000 nM
[6]; rabbit saphenous artery, 10 μM
  activation at 10 µM: 4.5%

## CC(=O)N[C@H]1[C@@H](O)[C@H](n2cnc3c(N)ncnc32)O[C@@H]1COP(=O)(O)OP(=O)(O)OP(=O)(O)O [3'-Acetylamino-3'deoxy-ATP, 3'-Acetylamino-3'-deoxyadenosine 5'-triphosphate]
[1]; guinea pig taenia coli
  activity/potency in words, taenia coli: nearly inactive
[7]
  activity/potency/selectivity in words, aorta: inactive at 10 μM at rabbit aorta P2Y receptors
[2]
  activity/potency in words, vas deferens: more or less as potent as ATP; also recorded: active in the vas deferens and urinary bladder
[3]
  activity/potency in words, bladder: more or less as potent as ATP; also recorded: active in the vas deferens and urinary bladder
[5]; listed as 3'-Acetylamino-3'-deoxy-ATP
  activity/potency in words, mesenteric artery: more potent than ATP at rabbit mesenteric artery P2Y receptors
[5]; listed as 3'-acetylamino-3'-deoxy-ATP
  activity/potency in words, mesenteric artery: the only P2Y receptor which had any appreciable activity was that in the rabbit mesenteric artery
[4]
  activity/potency in words, turkey erythrocyte: nearly inactive
[4]; [9]
  EC50: > 100000 nM
[6]; rabbit saphenous artery
  activity/potency in words, saphenous artery: inactive in the saphenous artery

## Nc1ncnc2c1ncn2[C@@H]1O[C@H](COP(=O)(O)OP(=O)(O)OP(=O)(O)O)[C@@H](NC(=O)CCc2ccc(O)cc2)[C@H]1O [3'-[3-(p-Hydroxyphenyl)propionylamino]-3'-deoxyadenosine 5'-triphosphate]
[1]; guinea pig taenia coli
  activity/potency in words, taenia coli: nearly inactive
[7]; listed as 3'-[3-(4-hydroxyphenyl)-propionylamino]-3'-deoxy-ATP
  activity/potency/selectivity in words, aorta: considerably more potent than ATP in the aorta
[7]; listed as 3-(p-Hydroxyphenyl-propionylamino-3'-deoxy-ATP)
  activity/potency/selectivity in words, aorta: a high degree of selectivity for the aortic endothelial P2Y receptor
[2]
  activity/potency in words, vas deferens: more or less as potent as ATP
[3]
  activity/potency in words, bladder: more or less as potent as ATP
[5]
  activity/potency in words, mesenteric artery: inactive in the mesenteric artery
[4]
  activity/potency in words, turkey erythrocyte: nearly inactive
[4]; [9]
  EC50: > 100000 nM
[6]; rabbit saphenous artery
  activity/potency in words, saphenous artery: inactive in the saphenous artery

## Nc1ncnc2c1ncn2[C@@H]1O[C@H](COP(=O)(O)O)[C@@H](O)[C@H]1O [AMP, adenosine 5'-monophosphate, reference compound]
[1]; guinea pig taenia coli
  activity/potency in words, taenia coli: much less potent
[7]
  relaxation pD2, aorta: 4.8
[2]
  activity/potency in words, vas deferens: without effect
[3]
  activity/potency in words, bladder: inactive
[5]
  relaxation pD2, mes. artery: 5.0
[4]; 5 min, at 10^-4 M, read-out: % stimulation at concentration indicated
  activation at 100 µM: 4 ± 2%
[4]
  activity/potency in words, turkey erythrocyte: inactive

## C=CCCCCSc1nc(NC)c2ncn([C@@H]3O[C@H](COP(=O)(O)O)[C@@H](O)[C@H]3O)c2n1 [N^6 -Me-2-(5-hexenyl)-thio-AMP, N^6 -Me-2-(5-hexenylthio)adenosine monophosphate]
[4]; [9]
  EC50: > 100000 nM
[6]; rabbit saphenous artery, 10 μM
  activation at 10 µM: 6.7%

## O=c1ccn([C@@H]2O[C@H](COP(=O)(O)OP(=O)(O)OP(=O)(O)O)[C@@H](O)[C@H]2O)c(=O)[nH]1 [UTP, reference compound]
[1]; [8]
  EC50: 316 µM
[7]
  relaxation pD2, aorta: 4.8
[2]
  activity/potency in words, vas deferens: without effect in the vas deferens
[3]
  activity/potency in words, bladder: as potent as or more potent than ATP in the bladder
[5]
  relaxation pD2, mes. artery: 6.7
[4]; [9]
  EC50: 143000 nM

## Nc1ncnc2c1ncn2[C@@H]1O[C@H](COP(=O)(O)OP(=O)(O)CP(=O)(O)O)[C@@H](O)[C@H]1O [β,γ-Me-ATP, β,γ-methylene-ATP, reference compound]
[1]; guinea pig taenia coli
  activity/potency in words, taenia coli: reduced activity in the taenia coli
[2]
  activity/potency in words, vas deferens: markedly enhanced activity
[3]
  activity/potency in words, bladder: markedly enhanced activity
[4]; phosphatidyl inositol metabolism (K0.5, nM) erythrocyte, mean ± S.E.M. for at least 2 determinations
  EC50: > 100000 nM
[4]
  activity/potency in words, turkey erythrocyte: nearly inactive at ≥100 μM
[6]
  activation at 10 µM: 89%
